The text below walks through data of publication PMC4432651, “Dynamic interplay between catalytic and lectin domains of GalNAc-transferases modulates protein O-glycosylation” (Nature Communications, 2015).

Structures are written as SMILES. Where a SMILES comes first, the peptide text is derived from it. The star is where a group is joined. αGalNAc = CC(=O)N[C@@H]1[C@@H](O)[C@@H](O)[C@@H](CO)O[C@@H]1*

Test [1] addresses T1, GalNAc-T2 (Homo sapiens, UniProt Q10471).
T1 construct: made in house
As to the kind of experiment: X-ray crystal structures of GalNAc-T2 complexes. In kind it is binding. The conditions noted are these: co-crystallization with UDP and Mn+2; flexible loop conformation. On the procedure: In all cases, crystals were grown by hanging drop vapour diffusion at 18 °C. […] The protein solution consisting of 3.5 mg ml^−1 of GalNAcT-2, 5 mM UDP, 5 mM MnCl2 and 6 mM MUC5AC-13 in the same buffer described above was mixed with the precipitant solution containing 1.6 M ammonium sulfate, 100 mM sodium chloride and 100 mM HEPES (pH 7). The crystals were cryoprotected in saturated lithium sulfate and frozen in a nitrogen gas stream cooled to 100 K.
All data were processed and scaled using the XDS package[34] and CCP4 software. The crystal structures were solved by molecular replacement with Phaser[35] and using the PDB entry 4D0T as the template. Initial phases were further improved by cycles of manual model building in Coot[36] and refinement with REFMAC5 (ref. [37]). The AUs of the tetragonal crystals contain 1 molecule of GalNAc-T2 (Fig. 1). Coordinates and structure factors have been deposited in the Worldwide Protein Data Bank (wwPDB, and see Table 1 for the pdb codes).

For test [2], the target named is T1, GalNAc-T2. As to the kind of experiment: Tryptophan fluorescence spectroscopy, dissociation constants of GalNAc-T2 against peptides. In kind it is binding. The settings on record: Kd in the absence of UDP/Mn+2 compared with presence of the nucleotide.
Experimental: All experiments were carried out in a Cary Eclipse spectrofluorometer (Varian) at 25 °C with GalNAc-T2 at 1 μM, and concentrations of peptides varying from 1 to 500 μM in 25 mM Tris, 150 mM NaCl, pH 7.5. The same experiments were also performed in the same buffer but containing 400 μM UDP and 1 mM MnCl2. Fluorescence emission spectra were recorded in the 300–400 nm range with an excitation wavelength of 280 nm, with slit width of 5 nm. The data analysis was performed in Prism (GraphPad software) considering a model with a single binding site (see equation (1), where F0 is the intrinsic fluorescence of the enzyme in the absence of quencher (Q), F1 is the observed fluorescence at a given quencher concentration, fa is the fractional degree of fluorescence and Kd is the dissociation constant.
The target of test [3] is T1, GalNAc-T2. As to the kind of experiment: SAXS with Ensemble Optimization Method: GalNAc-T2 conformations/oligomers with ligands. On all read-outs here: values in Å. The conditions noted are these: GalNAc-T2 5 mg/ml, 25 mM TRIS pH 7.5, 10 mM MnCl2, 10 °C; for Dmax: maximum intramolecular distance, GNOM. The protocol: SAXS measurements were performed at the European Molecular Biology Laboratory on the storage ring PETRA-III (DESY-Hamburg) on the P12 beamline equipped with a robotic sample changer and a PILATUS-2M. The analysis of the SAXS data was performed by using the EOM[31]. Additional details are in Supplementary Methods. […]
Small-angle X-ray scattering (SAXS) and data analysis
All experiments were performed in a buffer consisting of 25 mM TRIS pH 7.5, 10 mM MnCl2. The first set of experiments contained three different protein concentrations: 10 mg/ml (180 µM), 5 mg/ml (90 µM), 2.5 mg/ml (45 µM) and 1 […]
mg/ml (18 µM). The protein was measured alone and in the presence of ten times molar excess of UDP, UDP-GalNAc, UDP-EA2 peptide, MUC5AC-13, UDP-MUC5AC-13, MUC5AC, and UDP-MUC5AC. The second set of experiments was carried out with the protein concentration fixed at 5 mg/ml, and increasing concentrations of UDP (450 µM, 900 µM, 1.8 mM, 4.5 mM and 9 mM). The concentration of MUC5AC-13 was also changed as follows: 1 mM, 5 mM and 7.5 […]
Synchrotron SAXS measurements were performed at the European Molecular
Biology Laboratory (EMBL) on the storage ring PETRA-III (DESY-Hamburg) on the P12 beamline equipped with a robotic sample changer and a PILATUS-2M. The sample-detector distance was 3.1 m. The scattering intensity, I(s), was recorded at 10 °C in a momentum transfer range of 0.007<s<0.444 Å -1, where s = (4πsinθ )/λ , 2θ is the scattering angle, and λ = 1.24 Å is the X-ray wavelength. Twenty consecutive 0.05 second measurements were performed for protein samples and buffers to monitor for radiation damage that were subsequently averaged (no systematic radiation effects were observed). Buffer scattering profiles were subtracted from the sample ones using standard procedures 8. The values of the forward scattering, I(0), and radii of gyration, Rg, were calculated from the experimental SAXS patterns using Guinier’s approximation (Supplementary Fig. 4 and 5), I(s) = I(0)exp(-s2Rg2/3), which is valid in the range sRg < 1.3.
Structural analysis of the SAXS data was performed using the Ensemble Optimization Method (EOM)9. A pool of 10,000 monomeric structures of GalNac-T2 was constructed with the program RanCh9 by connecting three-dimensional structures of the catalytic and the lectin domains, extracted from the crystallographic structure 2FFU, with a flexible linker of 12 residues with random coil conformations. To […]
properly describe the data, these monomeric ensembles were enriched with 100 equivalent curves corresponding to one dimeric arrangement. As we tested three dimers, we built three different ensembles with the same 10,000 monomeric conformations and 100 copies of each one of the dimers. The three different dimers used for SAXS are shown in Supplementary Fig. 3c and correspond to three different crystal structures obtained under different conditions.
The scattering profiles of all members of the pool were computed with the program CRYSOL using standard parameters10. The pool of structures/profiles was submitted to the genetic algorithm (GA) with the aim to select a subensemble of 50 structures/curves with the capacity to collectively describe the experimental SAXS […]
was repeated 200 times starting from different randomly selected subensembles, and the resulting solutions were analysed together. The same pool was used to describe all the measured data. Results were quantitatively analysed by displaying the Rg distributions of the selected ensembles and the relative population of monomeric and dimeric species.
Three different dimeric arrangements were introduced individually in the pool. In all three cases the dimers display similar contacts between the lectin domains and the lectin domain of one monomer with the catalytic domain of a second monomer (Supplementary Fig. 3c). We can distinguish the crystallographic dimers by the buried area parameter inferred from the PISA server. The dimers present in the crystal structure of GalNAc-T2-UDP complex (PDB entry 2FFV) are the most compact ones […]

In test [4] the target is T1, GalNAc-T2. As to the kind of experiment: Time-lapse AFM of single GalNAc-T2 molecules with ligands. The conditions noted are these: in the presence of Mn+2; GalNAc-T2 2.0 nM on mica, UDP, UDP-GalNAc and MnCl2 20.0 nM, PBS pH 7.4, 20 °C. On the procedure: AFM measurements were performed using a MultiMode 8 AFM system (Bruker). […] Additional details are in Supplementary Methods. […]
simulations were performed with the acceptor amino acid – UDPGalNAc distance and the RMSD of the Cα peptide carbon atoms as collective variables.
The values of the height and width of the Gaussian-like biasing potential were selected as 1.0 kcal·mol -1 and 0.25 Å, respectively. A temperature window of ΔT = 25000 K for the well-tempered algorithm was used together with a deposition time of 1 ps. The simulation was continued until the system completely explored the free energy landscape several times which, in terms of the simulation time, corresponds to approximately 100 ns for each metadynamics run.
Atomic Force Microscopy Imaging
In Tapping Mode image operation the cantilever driven by a piezoelectric actuator vibrates near its resonance frequency. Upon approaching the sample, the tip briefly touches the surface at the bottom of each swing, resulting in a decrease in oscillation amplitude. […]
AFM scanning requires the sample be immobilized on a nanoflat surface not to be swept away. […] The concentration of the protein incubated on the mica sheets was suitable to get isolated features that could be analyzed individually. […]
GalNAc-T2 presents a net positive charge at the working pH conditions due to its theoretical isoelectric point of 8.3. The immobilization of enzymes on mica was previously evaluated observing clearly they preserve the enzymatic activity5.
To determine how the ligands affect the conformational dynamics of GalNAc-T2, the enzyme was also incubated with ligands for 10 min under mild stirring at room temperature. […] AFM images were further analyzed by using the WSxM software6. […] At least 10 images of 10 different areas of 500 nm2 were analyzed for every sample and environment. Furthermore, each feature or associate was analyzed in detail with the zoom function of the WSxM program, performed without losing image information and or the discarding of artifacts. […]

[5] abbreviates: ligand molar ratio GalNAc-T2:ligand 1:10.

T1 sequence (Q10471 75-571 limits assumed): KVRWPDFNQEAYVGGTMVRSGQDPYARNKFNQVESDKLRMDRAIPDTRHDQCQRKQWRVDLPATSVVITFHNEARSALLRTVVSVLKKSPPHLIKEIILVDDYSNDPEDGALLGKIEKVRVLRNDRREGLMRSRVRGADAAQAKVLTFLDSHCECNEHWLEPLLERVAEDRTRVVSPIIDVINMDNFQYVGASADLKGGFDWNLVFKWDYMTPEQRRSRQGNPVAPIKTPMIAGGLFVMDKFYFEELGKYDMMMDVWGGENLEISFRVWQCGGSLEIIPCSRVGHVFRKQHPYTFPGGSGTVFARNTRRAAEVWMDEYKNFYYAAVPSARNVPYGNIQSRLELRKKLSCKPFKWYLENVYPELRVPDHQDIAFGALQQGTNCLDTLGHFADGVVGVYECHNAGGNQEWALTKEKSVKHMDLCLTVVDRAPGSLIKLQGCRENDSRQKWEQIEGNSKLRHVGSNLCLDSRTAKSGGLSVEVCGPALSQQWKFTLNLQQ

On to `CC(=O)N[C@H]1[C@@H](O[C@H](C)[C@H](NC(=O)[C@@H](NC(=O)[C@H](CO)NC(=O)[C@@H](NC(=O)[C@@H](NC(=O)[C@@H]2CCCN2C(=O)[C@@H](NC(=O)[C@@H]2CCCN2C(=O)[C@H](CO)NC(=O)[C@@H]2CCCN2C(=O)[C@@H](NC(=O)[C@@H](NC(=O)CN)[C@@H](C)O)[C@@H](C)O[C@H]2O[C@H](CO)[C@H](O)[C@H](O)[C@H]2NC(C)=O)C(C)C)[C@@H](C)O)[C@@H](C)O)[C@@H](C)O)C(=O)N[C@@H](CO)C(=O)N[C@@H](C)C(N)=O)O[C@H](CO)[C@H](O)[C@@H]1O` [MUC5AC-3-13] (H-GTT(αGalNAc)PSPVPTTSTT(αGalNAc)SA-NH2; N-terminus assumed), for which the “form of GalNAc-T2 bound in crystal” value on GalNAc-T2 [1] is “bound to the inactive form of GalNAc-T2”.
In the case of `CC(=O)NCC(=O)N[C@H](C(=O)N[C@H](C(=O)N1CCC[C@H]1C(=O)N[C@@H](CO)C(=O)N1CCC[C@H]1C(=O)N[C@H](C(=O)N1CCC[C@H]1C(=O)N[C@H](C(=O)N[C@H](C(=O)N[C@@H](CO)C(=O)N[C@H](C(=O)N[C@H](C(=O)N[C@@H](CO)C(=O)N[C@@H](C)C(N)=O)[C@@H](C)O)[C@@H](C)O)[C@@H](C)O)[C@@H](C)O)C(C)C)[C@@H](C)O)[C@@H](C)O` [MUC5AC] (Ac-GTTPSPVPTTSTTSA-NH2; N-terminus assumed), at GalNAc-T2 [2], the “Kd in the absence vs presence of UDP/Mn+2” value is “fourfold better”. At GalNAc-T2 [3] (ligand molar ratio 1:10), the “Rg from p(r) (GNOM)” value is listed as 33.4 Å and the Dmax was 120 Å. Moreover, the “Rg (Guinier)” value on GalNAc-T2 [3] (setting [5]) is 32.3±0.3 Å. Besides, on GalNAc-T2 [3] (peptide + UDP (1:10)), the “Rg (Guinier)” value is 32.0±0.2 Å, the “Rg from p(r) (GNOM)” value was found to be 33.3 Å and the Dmax turned out to be 120 Å.
Turning to `CC(=O)N[C@H]1[C@@H](OP(=O)(O)OP(=O)(O)OC[C@H]2O[C@@H](n3ccc(=O)[nH]c3=O)[C@H](O)[C@@H]2O)O[C@H](CO)[C@H](O)[C@@H]1O` [UDP-GalNAc, uridine diphosphate N-acetylgalactosamine, reference compound], at GalNAc-T2 [4], the “conformational states of GalNAc-T2 observed” value is given as “either the very compact or the compact structure”. On GalNAc-T2 [3] (ligand molar ratio 1:10), the “Rg from p(r) (GNOM)” value amounted to 34.6 Å and the Dmax came out at 124 Å. At GalNAc-T2 [3] (setting [5]), the “Rg (Guinier)” value is recorded as 34.7±0.4 Å.
